Twelve compounds from patent US10544130B2, “Metallo-beta-lactamase inhibitors” (priority 2015, dated 2020) can be followed below.

Each structure is given as a SMILES string.

In the data set the test system is Pseudomonas aeruginosa PAO1 MB9798 (efflux+, IMP-1). As to conditions: ratio MITC95 PA 9798/MITC95 PA 9799; imipenem at 2 μg/mL. From the text: The strain background was Pseudomonas aeruginosa PAO1.
The strain set was then used as a pair to determine the effect of metallo-β-lactamase inhibitors of Formula I on the MIC of imipenem and/or ceftazidime. A fixed concentration of antibiotic was included in standard microbroth MIC tests, usually at the CLSI (Clinical and Laboratory Standards Institute) breakpoint concentration. A fixed amount of a class A/C beta-lactamase inhibitor was also included to inhibit the resident Pseudomonas AmpC enzyme. A serial titration of the metallo-β-lactamase inhibitor was included and the concentration of metallo-β-lactamase inhibitor which restores susceptibility of the strain to the included antibiotic was recorded. That concentration of metallo-β-lactamase inhibitor was then compared between the two strains to determine the fold difference between the efflux + (MB9798) and efflux − (MB9799) strains. This was taken as an indication of the extent to which the MBLi is subject to efflux.
With `Nc1nc2c(-c3ccc(S(=O)(=O)N4CC[C@H](N)C4)c(S(N)(=O)=O)c3-c3nnn[nH]3)cccc2s1` [Example 61, 3-(2-amino-1,3-benzothiazol-4-yl)-6-{[(3S)-3-aminopyrrolidin-1-yl]sulfonyl}-2-(1H-tetrazol-5-yl)benzenesulfonamide], the Efflux ratio is 1.00.
The same measure for `CC(CN)NS(=O)(=O)c1ccc(-c2cccc3sc(N)nc23)c(-c2nnn[nH]2)c1S(N)(=O)=O.O=CO` (stereo not drawn) [Example 116, 2-(4-(2-aminobenzo[d]thiazol-4-yl)-2-sulfamoyl-3-(1H-tetrazol-5-yl)phenylsulfonamido) propan-1-aminium formate]: 0.50; for `CCC1(NS(=O)(=O)c2ccc(-c3cccc4sc(N)nc34)c(-c3nnn[nH]3)c2S(N)(=O)=O)CCNC1` (stereo not drawn) [Example 56, 4-(2-amino-1,3-benzothiazol-4-yl)-N1-(3-ethylpyrrolidin-3-yl)-3-(1H-tetrazol-5-yl)benzene-1,2-disulfonamide]: 1.00.
The same measure for `NCCNS(=O)(=O)c1ccc(-c2ccc(N)nc2)c(-c2nn[nH]n2)c1S(N)(=O)=O` [Example 196, N^1-(2-aminoethyl)-4-(6-aminopyridin-3-yl)-3-(2H-tetrazol-5-yl)benzene-1,2-disulfonamide]: 1.00; for `CN(C)CCNS(=O)(=O)c1ccc(-c2cccc3sc(N)nc23)c(-c2nnn[nH]2)c1S(N)(=O)=O` [Example 22, 4-(2-amino-1,3-benzothiazol-4-yl)-N^1-[2-(dimethylamino)ethyl]-3-(1H-tetrazol-5-yl)benzene-1,2-disulfonamide]: 1.00.
The same measure for `NC[C@@H](O)CNS(=O)(=O)c1ccc(-c2cccc3[nH]c(N)nc23)c(-c2nn[nH]n2)c1S(N)(=O)=O` [Example 298, (R)-4-(2-amino-1H-benzo[d]imidazol-4-yl)-N1-(3-amino-2-hydroxypropyl)-3-(2H-tetrazol-5-yl)-benzene-1,2-disulfonamide]: 0.69.
As to `NS(=O)(=O)c1c(S(=O)(=O)N[C@@H]2CCNC2)ccc(-c2cccc3[nH]cnc23)c1-c1nn[nH]n1` [Example 193, 4-(1H-benzo[d]imidazol-4-yl)-N1-((R)-pyrrolidin-3-yl)-3-(2H-tetrazol-5-yl)benzene-1,2-disulfonamide], the Efflux ratio was determined as 1.00.
The same measure for `NC[C@H](CO)NS(=O)(=O)c1ccc(-c2cccc3sc(N)nc23)c(-c2nnn[nH]2)c1S(N)(=O)=O` [Example 202, (R)—N^1-(1-amino-3-hydroxypropan-2-yl)-4-(2-aminobenzo[d]thiazol-4-yl)-3-(1H-tetrazol-5-yl)benzene-1,2-disulfonamide]: 1.00.
The same measure for `Nc1nc2c(-c3ccc(S(=O)(=O)N4CCNCC4)c(S(N)(=O)=O)c3-c3nn[nH]n3)cccc2o1` [Example 159, 3-(2-aminobenzo[d]oxazol-4-yl)-6-(piperazin-1-ylsulfonyl)-2-(2H-tetrazol-5-yl)benzenesulfonamide]: 2.00; for `Nc1nc2c(-c3ccc(S(=O)(=O)N4CC[C@@H](N)C4)c(S(N)(=O)=O)c3-c3nnn[nH]3)cccc2s1` [Example 62, 3-(2-amino-1,3-benzothiazol-4-yl)-6-{[(3R)-3-aminopyrrolidin-l-yl]sulfonyl}-2-(1H-tetrazol-5-yl)benzenesulfonamide]: 1.00; for `Nc1nc2c(-c3ccc(S(=O)(=O)N[C@@H]4CN[C@H](CO)C4)c(S(N)(=O)=O)c3-c3nnn[nH]3)cccc2s1` [Example 80, 4-(2-amino-1,3-benzothiazol-4-yl)-N1-[(3S,5S)-5-(hydroxymethyl)pyrrolidin-3-yl]-3-(1H-tetrazol-5-yl)benzene-1,2-disulfonamide]: 1.00.
As to `CN(C)CC(F)(F)CNS(=O)(=O)c1ccc(-c2cccc3sc(N)nc23)c(-c2nnn[nH]2)c1S(N)(=O)=O` [Example 16, 4-(2-amino-1,3-benzothiazol-4-yl)-N1-[3-(dimethylamino)-2,2-difluoropropyl]-3-(1H-tetrazol-5-yl)benzene-1,2-disulfonamide], the Efflux ratio was 16.00.
